A short description of this series: Aqueous solubility. Type of series: physicochemical.

Consider `Cc1cnc(C(=O)N[C@H]2CCCCC/C=C\[C@@H]3C[C@@]3(C(=O)NS(=O)(=O)C3CC3)NC(=O)[C@@H]3C[C@@H](Oc4nc5ccccc5c5ccccc45)CN3C2=O)cn1` [Compound I, (2R,6S,13aS,14aR,16aS,Z)-N-(cyclopropylsulfonyl)-6-(5-methylpyrazine-2-carboxamido)-5,16-dioxo-2-(phenanthridin-6-yloxy)-1,2,3,5,6,7,8,9,10,11,13a,14,14a,15,16,16a-hexadecahydrocyclopropa[e]pyrrolo[1,2-a][1,4]diazacyclopentadecine-14a-carboxamide], for which the aqueous solubility entry is recorded as “low aqueous solubility”.

For the origin of these results see patent US20110312973A1, “SOLID COMPOSITIONS” (priority 2010, published 2011).
